The source of these data is US20240360151A1 (SANOFI, priority 2023, published 2024).

One may read the IC50 as the concentration at which inhibition is half-maximal.

Structures can show the parent of a compound that is named as a salt. Where only a bound is given, the exact number is not on record here.

T1 sequence (Q96P20 whole entry): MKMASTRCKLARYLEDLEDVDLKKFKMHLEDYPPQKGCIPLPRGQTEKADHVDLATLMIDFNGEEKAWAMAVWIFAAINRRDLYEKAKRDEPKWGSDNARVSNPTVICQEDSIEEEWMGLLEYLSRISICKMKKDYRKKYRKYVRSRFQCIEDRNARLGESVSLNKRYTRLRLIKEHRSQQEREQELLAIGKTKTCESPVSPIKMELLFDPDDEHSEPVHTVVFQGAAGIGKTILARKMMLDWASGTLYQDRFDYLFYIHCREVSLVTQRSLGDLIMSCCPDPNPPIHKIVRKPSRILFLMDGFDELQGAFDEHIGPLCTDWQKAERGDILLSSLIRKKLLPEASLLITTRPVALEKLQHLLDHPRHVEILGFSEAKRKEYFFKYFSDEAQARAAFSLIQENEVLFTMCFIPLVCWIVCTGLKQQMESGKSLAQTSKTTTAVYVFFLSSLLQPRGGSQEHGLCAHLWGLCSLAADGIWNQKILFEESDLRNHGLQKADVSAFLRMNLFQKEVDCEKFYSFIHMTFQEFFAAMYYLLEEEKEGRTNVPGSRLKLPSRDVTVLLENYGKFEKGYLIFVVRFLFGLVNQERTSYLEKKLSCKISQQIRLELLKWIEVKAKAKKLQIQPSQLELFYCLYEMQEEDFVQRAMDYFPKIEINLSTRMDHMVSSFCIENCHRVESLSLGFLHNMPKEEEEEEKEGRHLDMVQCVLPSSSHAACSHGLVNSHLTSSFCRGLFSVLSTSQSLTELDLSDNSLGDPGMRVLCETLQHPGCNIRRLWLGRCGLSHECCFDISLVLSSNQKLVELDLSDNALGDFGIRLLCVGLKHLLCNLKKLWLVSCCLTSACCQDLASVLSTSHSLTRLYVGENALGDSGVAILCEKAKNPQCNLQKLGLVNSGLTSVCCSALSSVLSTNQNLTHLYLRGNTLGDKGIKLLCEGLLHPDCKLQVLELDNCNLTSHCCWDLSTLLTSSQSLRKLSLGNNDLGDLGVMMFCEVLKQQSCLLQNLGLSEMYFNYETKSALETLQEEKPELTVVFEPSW

This test concerns the target T1, NLRP3 inflammasome (Homo sapiens, UniProt Q96P20).
T1 construct: endogenous in cells; host or cells: THP-1 monocytic cells
In words: IL-1β secretion assay (NLRP3 IC50) in LPS-primed, nigericin-activated THP-1 cells, HTRF. The format is cell-based. The settings on record: monocytic THP-1 cells; LPS 10 ng/mL 3 h priming, then compound + nigericin 10 μM 2 h; relative IC50, 10 concentrations, geometric mean. As to the method:
Monocytic THP-1 cells were maintained in RPMI 1640 media (Gibco 21875)+10% FBS, (Gibco 10500)+1% penicillin/streptomycin (Gibco 15140-122). Cells were then plated at 40,000 cells per well in 384-well cell culture plates (CoRNning 3542) and maintained with RPMI1640 (Gibco 11835)+5% FBS (Gibco 10500). Activation of the NLRP3 inflammasome requires both an NF-kB-dependent priming step and the addition of a NLRP3 activator. The priming step was induced by LPS (10 ng/mL, InvivoGen ref tlrl-3pelps) for 3 h at 37° C., then compound, in a 1:3 serial dilution series in DMSO (final concentration DMSO 0.1%), and the activator nigericin (Sigma Aldrich, ref: SML1779) 10 μM (final concentration) were added to the cells and co-incubated for 2 hours. 16 μL supernatant was removed, and IL-1β levels were monitored using an HTRF assay (Human IL1b Kits HTRF Cisbio ref: 62HILBPEH) according to manufacturers' instructions.
Data were expressed as percentage of inhibition (I %) as compared to a maximum signal control containing no small molecule (I %=0%) according to the formula: 1%=(1−((Sample−Min))/((Max−Min)))×100, where: • Sample: Signal obtained in the presence of each compound tested, • Max: Maximum signal in the absence of compound added, • Min: Minimum or background signal obtained in the absence of activation signal.
Relative IC50 (IC50 rel) were obtained from a dose response curve with 10 concentrations. Final IC50 rels are expressed as the geometric mean.
Relative IC50 values were estimated with Biost@t-SPEED v2.4 internal software based on SAS system using the 4-parameter logistic model according to Ratkovsky and Reedy (D. A. Ratkovsky, T. J. Reedy, Choosing near-linear parameters in the four parameters logistic model radioligands and related assays. Biometrics, 42 (1986), 575-582): Y=A+C/((1+exp(−B*(log(X)−M)))), where: • A: Lower asymptote (BOTTOM), • A+C: Upper asymptote (TOP), • M: the logarithm of the concentration estimated at the inflexion point (the logarithm of the relative IC50), • B: Slope at the inflexion point of the curve.
In general terms: Time-resolved FRET reads energy transfer from a long-lived donor to a nearby acceptor.
Take `Oc1cc(Cl)cc(Cl)c1-c1ccc(N2CCC3(CC2)CC(O)C3)nn1` [Example 37, 7-[6-(2,4-dichloro-6-hydroxy-phenyl)pyridazin-3-yl]-7-azaspiro[3.5]nonan-2-ol]: the IC50 turned out to be 893 nM. `Cc1cc(C)c(-c2ccc(N3CC[C@@]4(CN(C)CCO4)C3)nn2)c(O)c1` [Example 446, 3,5-dimethyl-2-[6-[(5R)-9-methyl-6-oxa-2,9-diazaspiro[4.5]decan-2-yl]pyridazin-3-yl]phenol]: the IC50 turned out to be 815 nM. Regarding `Cc1cc(C)c(-c2ccc(N3CCO[C@H](CN)C3)nn2)c(O)c1` [Example 89], the IC50 was found to be 614 nM.

On to `COC[C@H]1CCN(c2ccc(-c3c(C)cc(C)cc3O)nn2)C1` [Example 82, 2-[6-[(3S)-3-(methoxymethyl)pyrrolidin-1-yl]pyridazin-3-yl]-3,5-dimethyl-phenol], for which the IC50 was determined as 481 nM.

Regarding `Cc1cc(C(F)(F)F)cc(O)c1-c1ccc(N2CC[C@@H]3CN(C)C[C@@H]32)nn1` (single isomer, unassigned) [Example 271], the IC50 was found to be 690 nM.

Consider `Cc1ccc(-c2nnc(N3CC[C@@H]4CCN(C(C)C)C[C@@H]43)cc2C)c(O)c1` (racemic) [Example 528, 5-methyl-2-[4-methyl-6-[rac-(3aS,7aR)-6-isopropyl-3,3a,4,5,7,7a-hexahydro-2H-pyrrolo[2,3-c]pyridin-1-yl]pyridazin-3-yl]phenol], for which the IC50 turned out to be 4.9 nM. On to `Cc1cc(C(F)(F)F)cc(O)c1-c1ccc(N2CCO[C@H]3CNC[C@H]32)nn1` (racemic) [Example 320, 3-methyl-2-[6-[rac-(4aR,7aS)-3,4a,5,6,7,7a-hexahydro-2H-pyrrolo[3,4-b][1,4]oxazin-4-yl]pyridazin-3-yl]-5-(trifluoromethyl)phenol], for which the IC50 was determined as 116 nM. Under `Cc1cc(C(F)(F)F)cc(O)c1-c1ccc(N2CC[C@H]3CCNC[C@H]32)nn1` (single isomer, unassigned) [Example 393] stands 461 nM. In the case of `Cc1cc(C)c(-c2ccc(N3CCOC([C@H](C)O)C3)nn2)c(O)c1` (single isomer, unassigned) [Example 99] it was 752 nM; in that of `CCc1cc(C)cc(O)c1-c1ccc(N2CC[C@@H]3CCN(C)C[C@@H]32)nn1` (single isomer, unassigned) [Example 477], less than 0.3 nM. As to `Cc1cccc(O)c1-c1ccc(N2CCO[C@@H]3CCNC[C@@H]32)nn1` [Example 411, 2-[6-[(4aS,8aR)-2,3,4a,5,6,7,8,8a-octahydropyrido[4,3-b][1,4]oxazin-4-yl]pyridazin-3-yl]-3-methyl-phenol], the IC50 amounted to 344 nM. Take `Cc1cc(C(F)(F)F)cc(O)c1-c1ccc(N2CC[C@@H](O)CC2=O)nn1` [Example 316, (4R)-4-hydroxy-1-[6-[2-hydroxy-6-methyl-4-(trifluoromethyl)phenyl]pyridazin-3-yl]piperidin-2-one]: the IC50 was 287 nM.

In the case of `CCN1CCO[C@@H]2CN(c3ccc(-c4c(C)cc(C)cc4O)nn3)C[C@H]21` [Example 168, 2-[6-[(4aR,7aR)-4-ethyl-2,3,4a,5,7,7a-hexahydropyrrolo[3,4-b][1,4]oxazin-6-yl]pyridazin-3-yl]-3,5-dimethylphenol], the half-maximal inhibitory concentration (IC50) was found to be 3380 nM.

For `Cc1cc(C(F)(F)F)cc(O)c1-c1ccc(N2CC[C@@H](CO)C2=O)nn1` (single isomer, unassigned) [Example 326], the IC50 is 198 nM.

Turning to `Cc1cc(C)c(-c2ccc(N3CC(=O)N[C@H](CO)C3)nn2)c(O)c1` (single isomer, unassigned) [Example 330], the IC50 turned out to be 987 nM. `Cc1cc(C(F)(F)F)cc(O)c1-c1ccc(N2CCOC(CO)C2=O)nn1` (single isomer, unassigned) [Example 419]: the IC50 is 127 nM.

`CC(=O)N1CC[C@@H]2CCN(c3ccc(-c4c(C)cc(C(F)(F)F)cc4O)nn3)[C@@H]2C1` [Example 370, 1-[(3aS,7aS)-1-[6-[2-hydroxy-6-methyl-4-(trifluoromethyl)phenyl]pyridazin-3-yl]-3,3a,4,5,7,7a-hexahydro-2H-pyrrolo[2,3-c]pyridin-6-yl]ethanone]: the IC50 is 1270 nM. In the case of `Cc1cc(C(F)(F)F)cc(O)c1-c1ccc(N2CC[C@@H]3NCC[C@@H]32)nn1` (racemic) [Example 346, 3-methyl-2-[6-[rac-(3aS,6aS)-2,3,3a,5,6,6a-hexahydro-1H-pyrrolo[3,2-b]pyrrol-4-yl]pyridazin-3-yl]-5-(trifluoromethyl)phenol;hydrochloride], the IC50 turned out to be 212 nM. Under `Cc1cc(C(F)(F)F)cc(O)c1-c1ccc(N2CCC[C@@H]3CCN(C)C[C@@H]32)nn1` [Example 523, 2-[6-[(4aR,8aR)-7-methyl-2,3,4,4a,5,6,8,8a-octahydro-1,7-naphthyridin-1-yl]pyridazin-3-yl]-3-methyl-5-(trifluoromethyl)phenol] stands 681 nM. Under `Cc1cc(C)c(-c2ccc(N3CC4CCC3CN(C)C4)nn2)c(O)c1` (stereo not shown) [Example 410, 3,5-dimethyl-2-[6-(3-methyl-3,6-diazabicyclo[3.2.2]nonan-6-yl)pyridazin-3-yl]phenol] stands 2180 nM; under `CCN1CC[C@@H]2CCN(c3ccc(-c4c(C)cccc4O)nn3)[C@@H]2C1` (single isomer, unassigned) [Example 499], 3 nM. Under `Cc1cc(Cl)cc(O)c1-c1ccc(N2CC[C@H]3CCN(C)C[C@H]32)nn1` (single isomer, unassigned) [Example 503] stands 0.5 nM; under `CCN1CC[C@@H]2CCN(c3ccc(-c4c(O)cccc4C(F)(F)F)nn3)[C@@H]2C1` (single isomer, unassigned) [Example 473], 5 nM; under `CCc1cc(C(F)(F)F)cc(O)c1-c1ccc(N2CC[C@@H]3CCN(C)C[C@@H]32)nn1` (single isomer, unassigned) [Example 492], 3 nM. `CCN1CC[C@H]2OCCN(c3ccc(-c4c(C)cc(C(F)(F)F)cc4O)nn3)[C@@H]2C1` [Example 344, 2-[6-[(4aR,8aR)-6-ethyl-3,4a,5,7,8,8a-hexahydro-2H-pyrido[4,3-b][1,4]oxazin-4-yl]pyridazin-3-yl]-3-methyl-5-(trifluoromethyl)phenol]: the IC50 was 223 nM.

For the molecule `CCN1CC[C@@H]2CCN(c3cc(C(F)F)c(-c4ccc(C(F)(F)F)cc4O)nn3)[C@@H]2C1` (single isomer, unassigned) [Example 485], the IC50 turned out to be 45 nM.

Turning to `Cc1cc(C)c(-c2ccc(N3CCO[C@@H]4CCNC[C@@H]43)nn2)c(O)c1` [Example 315, 2-[6-[(4aS,8aR)-2,3,4a,5,6,7,8,8a-octahydropyrido[4,3-b][1,4]oxazin-4-yl]pyridazin-3-yl]-3,5-dimethyl-phenol], the IC50 worked out at 511 nM. Consider `CNCC[C@H]1CN(c2ccc(-c3c(C)cc(C(F)(F)F)cc3O)nn2)CCO1` (single isomer, unassigned) [Example 332], for which the IC50 worked out at 396 nM. `CCN1CC[C@H]2CCN(c3ccc(-c4c(C)cccc4O)nn3)[C@H]2C1` (single isomer, unassigned) [Example 498]: the IC50 was found to be 951 nM. In the case of `Cc1cc(C(F)(F)F)cc(O)c1-c1ccc(N2CCO[C@H]3CCOC[C@@H]32)nn1` (racemic) [Example 448, 3-methyl-2-[6-[rac-(4aS,8aS)-3,4a,5,7,8,8a-hexahydro-2H-pyrano[4,3-b][1,4]oxazin-4-yl]pyridazin-3-yl]-5-(trifluoromethyl)phenol] it was 370 nM; in that of `Cc1cc(C(F)(F)F)cc(O)c1-c1ccc(N2CCO[C@@H](CC#N)C2)nn1` (single isomer, unassigned) [Example 328], 219 nM; in that of `Cc1ccc(-c2ccc(N3CCO[C@H](CO)C3)nn2)c(O)c1` [Example 92, 2-[6-[(2S)-2-(hydroxymethyl)morpholin-4-yl]pyridazin-3-yl]-5-methyl-phenol], 2200 nM. In the case of `CCN1CC[C@H]2OCCN(c3cc(C)c(-c4ccc(F)cc4O)nn3)[C@H]2C1` [Example 479, 2-[6-[(4aS,8aR)-6-ethyl-3,4a,5,7,8,8a-hexahydro-2H-pyrido[4,3-b][1,4]oxazin-4-yl]-4-methyl-pyridazin-3-yl]-5-fluoro-phenol] it was 5 nM; in that of `CC(=O)N1CC[C@@H]2CCN(c3cc(C(F)F)c(-c4ccc(C(F)(F)F)cc4O)nn3)[C@@H]2C1` (single isomer, unassigned) [Example 510], 280 nM.
